The values that follow come from patent EP2758401B1 (Bayer Intellectual Property GmbH, priority 2011, dated 2013).

In assay [1] the target is T1, MKNK1 (Homo sapiens, UniProt Q9BUB5, T385D).
T1 construct: GST (N); purchased Carna Biosciences 02-145; host or cells: insect cells (baculovirus expression system)
The assay can be described thus: MKNK1 kinase assay (TR-FRET). The assay is classed as biochemical. Particulars: ATP final conc. 10 µM; 15 min pre-incubation; reaction time 45 min at 22°C. As to the method: MKNK1-inhibitory activity of compounds of the present invention was quantified employing the MKNK1 TR-FRET assay as described in the following paragraphs.
As substrate for the kinase reaction the biotinylated peptide biotin-Ahx-[…] (C-terminus in amide form) was used which can be purchased e.g. form the company Biosyntan (Berlin-Buch, Germany).
For the assay 50 nL of a 100fold concentrated solution of the test compound in DMSO was pipetted into a black low volume 384well microtiter plate (Greiner Bio-One, Frickenhausen, Germany), 2 µL of a solution of MKNK1 in aqueous assay buffer [50 mM HEPES pH 7.5, 5 mM magnesium chloride, 1.0 mM dithiothreitol, 0.005% (v/v) Nonidet-P40 (Sigma)] was added and the mixture was incubated for 15 min at 22°C to allow pre-binding of the test compounds to the enzyme before the start of the kinase reaction. Then the kinase reaction was started by the addition of 3 µL of a solution of adenosine-tri-phosphate (ATP, 16.7 µM => final conc. in the 5 µL assay volume is 10 µM) and substrate (0.1 µM => final conc. in the 5 µL assay volume is 0.06 µM) in assay buffer and the resulting mixture was incubated for a reaction time of 45 min at 22°C.
The resulting mixture was incubated for 1 h at 22°C to allow the formation of complex between the phosphorylated biotinylated peptide and the detection reagents. Subsequently the amount of phosphorylated substrate was evaluated by measurement of the resonance energy transfer from the Eu-chelate to the streptavidine-XL. Therefore, the fluorescence emissions at 620 nm and 665 nm after excitation at 350 nm were measured in a TR-FRET reader, e.g. a Rubystar (BMG Labtechnologies, Offenburg, Germany) or a Viewlux (Perkin-Elmer). The ratio of the emissions at 665 nm and at […] was taken as the measure for the amount of phosphorylated substrate. The data were normalised (enzyme reaction without inhibitor = 0 % inhibition, all other assay components but no enzyme = 100 % inhibition). […] Table 1: MKNK1 IC50s
(TR-FRET usually uses a lanthanide donor and a delayed reading to cut background.)

For assay [2], the target named is T1, MKNK1. The assay can be described thus: MKNK1 kinase high ATP assay (TR-FRET). Format: biochemical. To be noted: ATP final conc. 2 mM; 15 min pre-incubation; reaction time 30 min at 22°C. As for the experimental part: MKNK1-inhibitory activity at high ATP of compounds of the present invention after their preincubation with MKNK1 was quantified employing the TR-FRET-based MKNK1 high ATP assay as described in the following paragraphs.
As substrate for the kinase reaction the biotinylated peptide biotin-Ahx-[…] (C-terminus in amide form) was used, which can be purchased e.g. from the company Biosyntan (Berlin-Buch, Germany).
For the assay 50 nL of a 100fold concentrated solution of the test compound in DMSO was pipetted into a black low volume 384well microtiter plate (Greiner Bio-One, Frickenhausen, Germany), 2 µL of a solution of MKNK1 in aqueous assay buffer [50 mM HEPES pH 7.5, 5 mM magnesium chloride, 1.0 mM dithiothreitol, 0.005% (v/v) Nonidet-P40 (Sigma)] was added and the mixture was incubated for 15 min at 22°C to allow pre-binding of the test compounds to the enzyme before the start of the kinase reaction. Then the kinase reaction was started by the addition of 3 µL of a solution of adenosine-tri-phosphate (ATP, 3.3 mM => final conc. in the 5 µL assay volume is 2 mM) and substrate (0.1 µM => final conc. in the 5 µL assay volume is 0.06 µM) in assay buffer and the resulting mixture was incubated for a reaction time of 30 min at 22°C. The concentration of MKNK1 was adjusted depending of the activity of the enzyme lot and was chosen appropriate to have the assay in the linear range, typical concentrations were in the range of 0.003 µg/mL. The reaction was stopped by the addition of 5 µL of a solution of TR-FRET detection reagents (5 nM streptavidine-XL665 [Cisbio Bioassays, Codolet, France] and 1 nM anti-ribosomal protein S6 (pSer236)-antibody from Invitrogen [# 44921G] and 1 nM LANCE EU-W1024 labeled ProteinG [Perkin-Elmer, product no. AD0071]) in an aqueous EDTA-solution (100 mM EDTA, 0.1 % (w/v) bovine serum albumin in 50 mM HEPES pH 7.5).
The resulting mixture was incubated for 1 h at 22°C to allow the formation of complex between the phosphorylated biotinylated peptide and the detection reagents. Subsequently the amount of phosphorylated substrate was evaluated by measurement of the resonance energy transfer from the Eu-chelate to the streptavidine-XL. Therefore, the fluorescence emissions at 620 nm and 665 nm after excitation at 350 nm were measured in a TR-FRET reader, e.g. a Rubystar (BMG Labtechnologies, Offenburg, Germany) or a Viewlux (Perkin-Elmer). The ratio of the emissions at 665 nm and at […] was taken as the measure for the amount of phosphorylated substrate. The data were normalised (enzyme reaction without inhibitor = 0 % inhibition, all other assay components but no enzyme = 100 % inhibition).

T1 sequence (Q9BUB5 1-424 isoform Q9BUB5-2 T344D): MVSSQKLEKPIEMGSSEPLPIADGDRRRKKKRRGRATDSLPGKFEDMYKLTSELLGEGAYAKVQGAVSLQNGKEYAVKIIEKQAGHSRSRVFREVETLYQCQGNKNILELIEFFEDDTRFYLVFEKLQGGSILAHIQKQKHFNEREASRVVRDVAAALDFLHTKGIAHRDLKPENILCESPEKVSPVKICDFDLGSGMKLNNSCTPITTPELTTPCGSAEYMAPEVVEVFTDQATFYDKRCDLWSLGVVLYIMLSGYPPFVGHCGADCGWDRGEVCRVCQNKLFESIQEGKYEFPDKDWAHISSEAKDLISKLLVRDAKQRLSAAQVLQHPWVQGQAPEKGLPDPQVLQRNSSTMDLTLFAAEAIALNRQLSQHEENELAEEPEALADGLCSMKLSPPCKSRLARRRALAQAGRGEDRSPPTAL

Turning to “1-{[3-(1-Benzofuran-2-yl)imidazo[1,2-b]pyridazin-6-yl]oxy}-2-methylpropan-2-amine [Example 29]”, the IC50 against MKNK1 [1] worked out at 17 nM; at MKNK1 [2] it was 59 nM.

With `COc1cccc2oc(-c3cnc4ccc(OCCCCN)nn34)cc12` [Example 1, 4-{[3-(4-Methoxy-1-benzofuran-2-yl)imidazo[1,2-b]pyridazin-6-yl]oxy}butan-1-amine], the results for the IC50 at MKNK1 [1] and at MKNK1 [2] were 3 nM and 5 nM, respectively. As for `N[C@H]1C[C@H](Oc2ccc3ncc(-c4cc5ccccc5o4)n3n2)C1` [Example 2, trans-3-{[3-(1-Benzofuran-2-yl)imidazo[1,2-b]pyridazin-6-yl]oxy}cyclobutan-amine], the IC50 was 5 nM against MKNK1 [1] and 6 nM at MKNK1 [2]. Consider `N[C@H]1C[C@@H](Oc2ccc3ncc(-c4cc5ccccc5o4)n3n2)C1` [Example 3, cis-3-{[3-(1-Benzofuran-2-yl)imidazo[1,2-b]pyridazin-6-yl]oxy}cyclobutan-amine], for which the values for the IC50 against MKNK1 [1] and at MKNK1 [2] were 4 nM and 17 nM, respectively. On to `COc1cccc2oc(-c3cnc4ccc(OCCCN)nn34)cc12` [Example 4, 3-{[3-(4-Methoxy-1-benzofuran-2-yl)imidazo[1,2-b]pyridazin-6-yl]oxy}propan-1-amine], for which the IC50 on MKNK1 [1] worked out at 5 nM; against MKNK1 [2], 15 nM. With `COc1cccc2oc(-c3cnc4ccc(OCCN)nn34)cc12` [Example 5, 2-{[3-(4-Methoxy-1-benzofuran-2-yl)imidazo[1,2-b]pyridazin-6-yl]oxy}ethan-amine], the IC50 at MKNK1 [1] was 6 nM; against MKNK1 [2], 18 nM. Taken in the same sequence, the figures for `COc1ccc2oc(-c3cnc4ccc(OCCN)nn34)cc2c1` [Example 6, 2-{[3-(5-Methoxy-1-benzofuran-2-yl)imidazo[1,2-b]pyridazin-6-yl]oxy}ethan-amine] were 6 nM and 13 nM. For the molecule `C[C@H](N)COc1ccc2ncc(-c3cc4ccccc4o3)n2n1` [Example 7, (2S)-1-{[3-(1-Benzofuran-2-yl)imidazo[1,2-b]pyridazin-6-yl]oxy}propan-2-amine], the figures for the IC50 against MKNK1 [1] and on MKNK1 [2] were 7 nM and 18 nM, respectively. In turn, `NCCOCCOc1ccc2ncc(-c3cc4ccccc4o3)n2n1` [Example 21, 2-(2-{[3-(1-Benzofuran-2-yl)imidazo[1,2-b]pyridazin-6-yl]oxy}ethoxy)ethan-amine] returned an IC50 on MKNK1 [2] of 14 nM. This lies in the double-digit nanomolar range. Take `N[C@@H]1CCCC[C@H]1Oc1ccc2ncc(-c3cc4ccccc4o3)n2n1` [Example 23, (1R,2R)-2-{[3-(1-Benzofuran-2-yl)imidazo[1,2-b]pyridazin-6-yl]oxy}cyclohexan-amine]: it took 18 nM to reach half-maximal inhibition on MKNK1 [2] (IC50). The molecule `NC1(COc2ccc3ncc(-c4cc5ccccc5o4)n3n2)CCC1` [Example 27, 1-({[3-(1-Benzofuran-2-yl)imidazo[1,2-b]pyridazin-6-yl]oxy}methyl)cyclobutan-amine] gave an IC50 against MKNK1 [2] of 29 nM. On MKNK1 [2], `C=CCCC(CN)Oc1ccc2ncc(-c3cc4ccccc4o3)n2n1` (stereo not shown) [Example 28, 2-{[3-(1-Benzofuran-2-yl)imidazo[1,2-b]pyridazin-6-yl]oxy}hex-5-en-1-amine] came in with an IC50 of 45 nM. `NCC(CN1CCOCC1)Oc1ccc2ncc(-c3cc4ccccc4o3)n2n1` (stereo not shown) [Example 31, 2-{[3-(1-Benzofuran-2-yl)imidazo[1,2-b]pyridazin-6-yl]oxy}-3-(morpholin-4-yl)-propan-1-amine] showed an IC50 against MKNK1 [2] of 78 nM. On the same count and under the same terms, in the case of `NC(COc1ccc2ncc(-c3cc4ccccc4o3)n2n1)C1CCOCC1` (stereo not shown) [Example 32, 2-{[3-(1-Benzofuran-2-yl)imidazo[1,2-b]pyridazin-6-yl]oxy}-1-(tetrahydro-2H-pyran-4-yl)ethanamine] it was 79 nM; in that of `NCC(Cc1ccc(F)cc1)Oc1ccc2ncc(-c3cc4ccccc4o3)n2n1` (stereo not shown) [Example 53, 2-{[3-(1-Benzofuran-2-yl)imidazo[1,2-b]pyridazin-6-yl]oxy}-3-(4-fluorophenyl)-propan-1-amine], 46 nM. For the molecule `NCC(Cc1ccncc1)Oc1ccc2ncc(-c3cc4ccccc4o3)n2n1` (stereo not shown) [Example 54, 2-{[3-(1-Benzofuran-2-yl)imidazo[1,2-b]pyridazin-6-yl]oxy}-3-(pyridin-4-yl)-propan-1-amine], the IC50 at MKNK1 [2] is 19 nM. Compared with the last molecule, the IC50 is about 2.4-fold lower. Consider `NC[C@H](Oc1ccc2ncc(-c3cc4ccccc4o3)n2n1)c1cccnc1` [Example 55, (2R)-2-{[3-(1-benzofuran-2-yl)imidazo[1,2-b]pyridazin-6-yl]oxy}-2-(pyridin-3-yl)ethanamine], for which it took 16 nM to reach half-maximal inhibition on MKNK1 [1] (IC50).

Regarding `NCC(Oc1ccc2ncc(-c3cc4ccccc4o3)n2n1)c1ccc(F)cc1` (stereo not shown) [Example 56, 2-{[3-(1-benzofuran-2-yl)-imidazo-[1,2-b]-pyridazin-6-yl]oxy}-2-(4-fluorophenyl)-ethanamine], at MKNK1 [1], half-maximal inhibition (IC50) required 40 nM. This IC50 lies about 2.5-fold higher than the previous one. The molecule `NCC(Oc1ccc2ncc(-c3cc4ccccc4o3)n2n1)c1ccccn1` (stereo not shown) [Example 57, 2-{[3-(1-benzofuran-2-yl)-imidazo-[1,2-b]-pyridazin-6-yl]oxy}-2-(pyridin-2-yl)-ethanamine] displayed an IC50 against MKNK1 [1] of 94 nM. On to `CC(C)Oc1cccc(C(CN)Oc2ccc3ncc(-c4cc5ccccc5o4)n3n2)c1` (stereo not shown) [Example 58, 2-{[3-(1-benzofuran-2-yl)-imidazo-[1,2-b]-pyridazin-6-yl]oxy}-2-(3-iso-propoxyphenyl)-ethanamine], for which, at MKNK1 [1], the midpoint of inhibition, the IC50, lay at 20 nM. Still for that read-out and setting: the value for `NCC(Oc1ccc2ncc(-c3cc4ccccc4o3)n2n1)c1cccc(C(F)(F)F)c1` (stereo not shown) [Example 59, 2-{[3-(1-benzofuran-2-yl)-imidazo-[1,2-b]-pyridazin-6-yl]oxy}-2-[3-(trifluoromethyl)-phenyl]-ethanamine] was 37 nM; that for `NCC(Oc1ccc2ncc(-c3cc4ccccc4o3)n2n1)c1ccc(F)cc1F` (stereo not shown) [Example 60, 2-{[3-(1-benzofuran-2-yl)-imidazo-[1,2-b]-pyridazin-6-yl]oxy}-2-(2,4-difluorophenyl)-ethanamine] was 39 nM; that for `N[C@H](COc1ccc2ncc(-c3cc4ccccc4o3)n2n1)c1ccc(F)cc1` [Example 61, (1S)-2-{[3-(1-benzofuran-2-yl)imidazo[1,2-b]pyridazin-6-yl]oxy}-1-(4-fluorophenyl)ethanamine] was 29 nM.

On MKNK1 [1], `N[C@H](COc1ccc2ncc(-c3cc4ccccc4o3)n2n1)c1ccc(Cl)cc1` [Example 62, (1S)-2-{[3-(1-benzofuran-2-yl)imidazo[1,2-b]pyridazin-6-yl]oxy}-1-(4-chlorophenyl)ethanamine] came in with an IC50 of 31 nM. The IC50 values of the last two molecules are within 1.5-fold of each other.

On MKNK1 [1], `NC(COc1ccc2ncc(-c3cc4ccccc4o3)n2n1)c1cccnc1` (stereo not shown) [Example 63, 2-{[3-(1-benzofuran-2-yl)imidazo[1,2-b]pyridazin-6-yl]oxy}-1-(pyridin-3-yl)ethanamine] gave an IC50 of 54 nM. Molecule `NCCC(Oc1ccc2ncc(-c3cc4ccccc4o3)n2n1)c1ccc(F)cc1` (stereo not shown) [Example 64] registered an IC50 against MKNK1 [1] of 57 nM. The IC50 values of the last two molecules are within 1.5-fold of each other.

Usually IC50 stands for the midpoint of a concentration-inhibition curve. Read a low IC50 as greater potency in that assay.
